IC50 data for 29 compounds are collected here from patent US8569344B2, “N-piperidinyl acetamide derivatives as calcium channel blockers” (Zalicus Pharmaceuticals Ltd., priority 2008, dated 2013).

T2 sequence (O95180 whole entry): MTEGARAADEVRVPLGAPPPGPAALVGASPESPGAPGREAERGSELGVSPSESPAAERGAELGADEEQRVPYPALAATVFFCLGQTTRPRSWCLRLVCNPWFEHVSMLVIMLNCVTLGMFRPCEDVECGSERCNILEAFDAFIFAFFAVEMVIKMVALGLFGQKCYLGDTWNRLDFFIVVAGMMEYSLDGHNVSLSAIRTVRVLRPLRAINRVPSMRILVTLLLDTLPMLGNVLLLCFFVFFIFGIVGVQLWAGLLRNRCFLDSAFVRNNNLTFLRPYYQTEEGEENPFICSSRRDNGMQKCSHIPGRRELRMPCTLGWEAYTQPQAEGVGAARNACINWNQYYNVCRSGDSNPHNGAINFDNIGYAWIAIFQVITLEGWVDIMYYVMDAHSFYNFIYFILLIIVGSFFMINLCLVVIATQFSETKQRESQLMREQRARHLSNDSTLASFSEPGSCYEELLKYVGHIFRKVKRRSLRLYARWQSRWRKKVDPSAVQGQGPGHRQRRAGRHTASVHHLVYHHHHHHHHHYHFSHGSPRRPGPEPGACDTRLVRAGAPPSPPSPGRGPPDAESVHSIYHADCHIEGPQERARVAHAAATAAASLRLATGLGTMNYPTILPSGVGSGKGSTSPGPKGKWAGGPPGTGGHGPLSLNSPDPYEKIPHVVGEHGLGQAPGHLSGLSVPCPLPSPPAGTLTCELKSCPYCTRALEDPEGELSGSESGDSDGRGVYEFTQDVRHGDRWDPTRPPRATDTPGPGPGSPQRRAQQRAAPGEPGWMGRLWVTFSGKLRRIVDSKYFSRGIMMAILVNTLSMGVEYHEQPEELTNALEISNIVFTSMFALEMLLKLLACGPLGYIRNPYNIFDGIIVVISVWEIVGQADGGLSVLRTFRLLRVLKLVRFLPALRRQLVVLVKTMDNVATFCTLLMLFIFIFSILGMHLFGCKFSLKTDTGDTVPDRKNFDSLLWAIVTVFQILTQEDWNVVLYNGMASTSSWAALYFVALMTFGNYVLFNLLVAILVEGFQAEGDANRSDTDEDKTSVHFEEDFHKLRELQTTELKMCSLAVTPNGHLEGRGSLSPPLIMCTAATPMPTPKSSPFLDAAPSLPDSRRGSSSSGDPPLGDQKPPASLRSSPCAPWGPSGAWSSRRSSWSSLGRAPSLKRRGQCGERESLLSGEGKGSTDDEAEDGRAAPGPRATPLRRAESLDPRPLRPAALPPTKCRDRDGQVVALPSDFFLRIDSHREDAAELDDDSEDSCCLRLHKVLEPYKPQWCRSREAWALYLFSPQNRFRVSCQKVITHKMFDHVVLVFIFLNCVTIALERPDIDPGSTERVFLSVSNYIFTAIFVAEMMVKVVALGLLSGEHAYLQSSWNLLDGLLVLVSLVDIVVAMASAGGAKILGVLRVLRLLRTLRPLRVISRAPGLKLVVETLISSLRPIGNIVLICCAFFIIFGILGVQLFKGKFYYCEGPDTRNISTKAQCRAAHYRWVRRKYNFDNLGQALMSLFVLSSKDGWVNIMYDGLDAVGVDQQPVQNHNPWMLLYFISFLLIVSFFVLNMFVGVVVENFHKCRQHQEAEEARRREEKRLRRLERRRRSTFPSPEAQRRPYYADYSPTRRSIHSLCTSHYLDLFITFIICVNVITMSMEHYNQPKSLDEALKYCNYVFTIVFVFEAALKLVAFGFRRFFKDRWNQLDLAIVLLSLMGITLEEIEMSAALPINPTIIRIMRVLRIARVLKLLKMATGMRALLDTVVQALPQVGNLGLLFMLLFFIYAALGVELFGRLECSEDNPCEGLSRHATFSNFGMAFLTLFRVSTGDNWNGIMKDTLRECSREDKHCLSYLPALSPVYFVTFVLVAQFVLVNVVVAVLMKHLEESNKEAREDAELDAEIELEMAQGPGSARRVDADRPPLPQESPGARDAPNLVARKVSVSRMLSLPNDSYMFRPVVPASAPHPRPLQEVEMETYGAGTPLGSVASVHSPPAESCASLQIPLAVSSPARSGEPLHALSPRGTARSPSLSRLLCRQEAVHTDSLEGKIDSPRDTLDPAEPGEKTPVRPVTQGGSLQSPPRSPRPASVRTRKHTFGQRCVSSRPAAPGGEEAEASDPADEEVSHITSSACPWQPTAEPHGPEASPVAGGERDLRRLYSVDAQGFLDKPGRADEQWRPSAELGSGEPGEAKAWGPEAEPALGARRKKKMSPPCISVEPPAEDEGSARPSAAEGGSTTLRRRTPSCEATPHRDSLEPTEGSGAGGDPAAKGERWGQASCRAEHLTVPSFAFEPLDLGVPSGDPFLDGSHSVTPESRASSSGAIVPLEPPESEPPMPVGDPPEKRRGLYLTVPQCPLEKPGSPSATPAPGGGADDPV

In the first assay the target is T1, human α1G T-type channels (Homo sapiens, UniProt O43497).
T1 construct: expressed in transfected cells; host or cells: HEK 293
T1 sequence (O43497 whole entry): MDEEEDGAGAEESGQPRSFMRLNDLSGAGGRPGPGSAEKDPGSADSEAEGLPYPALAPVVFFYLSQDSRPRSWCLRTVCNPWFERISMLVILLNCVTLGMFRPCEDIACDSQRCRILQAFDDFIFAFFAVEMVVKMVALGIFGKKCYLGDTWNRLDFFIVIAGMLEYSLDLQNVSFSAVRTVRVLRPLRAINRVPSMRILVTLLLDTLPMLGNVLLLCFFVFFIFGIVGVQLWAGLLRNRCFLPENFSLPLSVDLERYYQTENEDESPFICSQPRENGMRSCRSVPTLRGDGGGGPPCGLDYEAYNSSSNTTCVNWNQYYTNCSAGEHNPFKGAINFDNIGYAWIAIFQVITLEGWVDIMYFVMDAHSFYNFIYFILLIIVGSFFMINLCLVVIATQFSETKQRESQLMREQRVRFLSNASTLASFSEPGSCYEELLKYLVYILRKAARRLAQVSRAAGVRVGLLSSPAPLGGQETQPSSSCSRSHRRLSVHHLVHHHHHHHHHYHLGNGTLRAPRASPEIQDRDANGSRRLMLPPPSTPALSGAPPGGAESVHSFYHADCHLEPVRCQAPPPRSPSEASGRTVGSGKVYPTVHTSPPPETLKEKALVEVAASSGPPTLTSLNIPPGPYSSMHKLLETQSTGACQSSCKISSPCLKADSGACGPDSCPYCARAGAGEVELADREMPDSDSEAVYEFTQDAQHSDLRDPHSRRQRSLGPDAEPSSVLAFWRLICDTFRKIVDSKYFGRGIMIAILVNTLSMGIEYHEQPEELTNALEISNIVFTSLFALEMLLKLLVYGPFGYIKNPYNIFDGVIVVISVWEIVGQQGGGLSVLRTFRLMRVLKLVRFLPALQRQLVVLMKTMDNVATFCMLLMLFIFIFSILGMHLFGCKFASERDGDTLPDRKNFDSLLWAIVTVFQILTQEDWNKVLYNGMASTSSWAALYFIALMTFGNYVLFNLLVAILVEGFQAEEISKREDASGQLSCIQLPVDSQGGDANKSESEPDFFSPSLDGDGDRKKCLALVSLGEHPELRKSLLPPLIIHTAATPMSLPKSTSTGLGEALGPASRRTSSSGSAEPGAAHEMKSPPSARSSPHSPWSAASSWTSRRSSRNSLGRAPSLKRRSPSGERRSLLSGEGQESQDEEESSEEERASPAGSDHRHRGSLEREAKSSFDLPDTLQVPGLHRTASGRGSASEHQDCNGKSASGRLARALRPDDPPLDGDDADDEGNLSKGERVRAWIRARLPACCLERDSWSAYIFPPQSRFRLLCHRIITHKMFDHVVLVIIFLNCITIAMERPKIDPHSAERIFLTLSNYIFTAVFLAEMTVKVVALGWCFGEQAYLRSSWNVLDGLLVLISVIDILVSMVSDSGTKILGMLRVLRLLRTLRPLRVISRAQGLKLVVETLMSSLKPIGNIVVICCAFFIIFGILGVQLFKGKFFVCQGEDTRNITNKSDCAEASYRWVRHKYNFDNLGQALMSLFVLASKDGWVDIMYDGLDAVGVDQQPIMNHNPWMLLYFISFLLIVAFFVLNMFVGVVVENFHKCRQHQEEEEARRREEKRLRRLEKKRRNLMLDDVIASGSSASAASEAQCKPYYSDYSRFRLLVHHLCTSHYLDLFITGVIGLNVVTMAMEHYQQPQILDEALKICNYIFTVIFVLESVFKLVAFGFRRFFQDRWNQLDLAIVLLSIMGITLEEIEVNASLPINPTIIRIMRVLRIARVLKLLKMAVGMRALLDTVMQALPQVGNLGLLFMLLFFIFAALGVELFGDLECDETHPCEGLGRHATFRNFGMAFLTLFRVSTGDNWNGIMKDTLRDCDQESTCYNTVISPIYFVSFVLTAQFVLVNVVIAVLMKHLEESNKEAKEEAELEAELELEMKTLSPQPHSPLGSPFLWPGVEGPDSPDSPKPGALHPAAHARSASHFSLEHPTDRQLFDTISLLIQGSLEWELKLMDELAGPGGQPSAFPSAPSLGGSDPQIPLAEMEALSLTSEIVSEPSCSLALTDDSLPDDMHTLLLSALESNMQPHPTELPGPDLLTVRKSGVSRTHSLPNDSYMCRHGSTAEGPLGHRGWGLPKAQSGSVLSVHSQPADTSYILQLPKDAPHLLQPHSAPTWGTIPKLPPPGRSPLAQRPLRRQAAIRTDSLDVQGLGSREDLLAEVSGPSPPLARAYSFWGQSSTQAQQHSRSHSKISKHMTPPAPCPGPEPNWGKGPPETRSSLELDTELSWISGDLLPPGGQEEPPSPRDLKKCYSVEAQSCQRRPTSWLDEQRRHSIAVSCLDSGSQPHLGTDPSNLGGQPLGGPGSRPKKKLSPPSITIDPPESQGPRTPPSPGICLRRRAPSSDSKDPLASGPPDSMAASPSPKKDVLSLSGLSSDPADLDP
Nature of the assay: T-type calcium channel block, whole cell patch clamp in HEK cells (α1G). Format: cell-based. Particulars: HEK cells, patch clamp, mainly non-inactivated protocol; values above 10 μM shown as 10 μM, below 0.30 μM shown as 0.30 μM; read-out: T-type Calcium Channel Block α1G IC50. As for the experimental part:
(§1) T-type calcium channel blocking activity was assayed in human embryonic kidney cells, HEK 293, stably transfected with the T-type calcium channel subunits. Briefly, cells were cultured in Dulbecco's modified eagle medium (DMEM) supplemented with 10% fetal bovine serum, 200 U/ml penicillin and 0.2 mg/ml streptomycin at 37° C. with 5% CO2. At 85% confluency cells were split with 0.25% trypsin/1 mM EDTA and plated at 10% confluency on glass coverslips. […] Fresh DMEM was supplied and the cells transferred to 28° C./5% CO2. Cells were incubated for 1 to 2 days prior to whole cell recording.
(§2) Standard patch-clamp techniques were employed to identify blockers of T-type currents. Briefly, previously described HEK cell lines stably expressing human α1G, α1H and α1I T-type channels were used for all the recordings (passage #: 4-20, 37° C., 5% CO2). Whole cell patch clamp experiments were performed using an Axopatch 200B amplifier (Axon Instruments, Burlingame, Calif.) linked to a personal computer equipped with pCLAMP software. Data were analyzed using Clampfit (Axon Instruments) and SigmaPlot 4.0 (Jandel Scientific). To obtain T-type currents, plastic dishes containing semi-confluent cells were positioned on the stage of a ZEISS AXIOVERT S100 microscope after replacing the culture medium with external solution (see below). Whole-cell patches were obtained using pipettes (borosilicate glass with filament, O.D.: 1.5 mm, I.D.: 0.86 mm, 10 cm length), fabricated on a SUTTER P-97 puller with resistance values of ˜5 MΩ (see below for internal solution).
(§3) In the non-inactivating protocol, the holding potential is set at −110 mV and with a pre-pulse at −100 mV for 1 second prior to the test pulse at −40 mV for 50 ms.
(§4) Test compounds were dissolved in external solution, 0.1-0.01% DMSO. After ˜10 min rest, they were applied by gravity close to the cell using a WPI microfil tubing. The “non-inactivated” pre-pulse was used to examine the resting block of a compound. The “inactivated” protocol was employed to study voltage-dependent block. […] Values are shown in μM and values above 10 μM are simply represented as 10 μM.
With `O=C(NCC1CCN(C[C@@H]2CCCN2S(=O)(=O)C2CCCC2)CC1)c1cc(F)cc(C(F)(F)F)c1` [Compound 420, (S)-N-((1-((1-(cyclopentylsulfonyl)pyrrolidin-2-yl)methyl)piperidin-4-yl)methyl)-3-fluoro-5-(trifluoromethyl)benzamide], the IC50 came out at 700 nM. As for `CC(C)(C)OC(=O)NCCN1CCC(CNC(=O)c2cccc(S(C)(=O)=O)c2)CC1` [Compound 45, tert-butyl 2-(4-((3-(methylsulfonyl)benzamido)methyl)piperidin-1-yl)ethylcarbamate], the IC50 was over 10000 nM. `O=C(NCC1CCN(CCNC(=O)C2CCCC2)CC1)c1cccc(Br)c1` [Compound 400, 3-bromo-N-((1-(2-(cyclopentanecarboxamido)ethyl)piperidin-4-yl)methyl)benzamide]: the IC50 came out at 1500 nM. On the same count and under the same terms, the same measure for `CC(C)(C)C(O)CN1CCC(CC(=O)NCc2ccc3c(c2)CCO3)CC1` (centres unmarked) [Compound 176, N-((2,3-dihydrobenzofuran-5-yl)methyl)-2-(1-(2-hydroxy-3,3-dimethylbutyl)piperidin-4-yl)acetamide]: over 10000 nM; for `Cc1cc(C)cc(C(=O)NCC2CCN(CCNC(=O)C3CCCC3)CC2)c1` [Compound 392, N-((1-(2-(cyclopentanecarboxamido)ethyl)piperidin-4-yl)methyl)-3,5-dimethyl-benzamide]: 2010 nM; for `O=C(NCC1CCN(CCNC(=O)C2CCCC2)CC1)c1cc(Cl)cc(Br)c1` [Compound 406, 3-bromo-5-chloro-N-((1-(2-(cyclopentanecarboxamido)ethyl)piperidin-4-yl)methyl)benzamide]: under 300 nM. In the case of `COc1cc(F)cc(C(=O)NCC2CCN(CCNC(=O)C3CCCC3)CC2)c1` [Compound 396, N-((1-(2-(cyclopentanecarboxamido)ethyl)piperidin-4-yl)methyl)-3-fluoro-5-methoxybenzamide], the IC50 stood at 2910 nM.

On to `NC1(C(=O)N2CCC(CC(=O)Nc3cc(C(F)(F)F)cc(C(F)(F)F)c3)CC2)CCOCC1` [Compound 194, 2-(1-(4-aminotetrahydro-2H-pyran-4-carbonyl)piperidin-4-yl)-N-(3,5-bis(trifluoromethyl)phenyl)acetamide], for which the IC50 was over 10000 nM.

For the compound `O=C(NCC1CCN(C[C@@H]2CCCN2S(=O)(=O)C2CC2)CC1)c1cc(F)cc(C(F)(F)F)c1` [Compound 418, (S)-N-((1-((1-(cyclopropylsulfonyl)pyrrolidin-2-yl)methyl)piperidin-4-yl)methyl)-3-fluoro-5-(trifluoromethyl) benzamide], the IC50 was 2170 nM.

As to `CC(C)(C)C(CN1CCC(CC(=O)NC(c2cccc(F)c2)c2cccc(F)c2)CC1)NS(C)(=O)=O` (centres unmarked) [Compound 219, N-(bis(3-fluorophenyl)methyl)-2-(1-(3,3-dimethyl-2-(methylsulfonamido)butyl)piperidin-4-yl)acetamide], the IC50 is over 10000 nM. In the case of `NC1(C(=O)N2CCC(CNC(=O)c3cc(C(F)(F)F)cc(C(F)(F)F)c3)CC2)CCCC1` [Compound 85, N-((1-(1-aminocyclopentanecarbonyl)piperidin-4-yl)methyl)-3,5-bis(trifluoromethyl) benzamide], the IC50 is over 10000 nM. Take `CC(C)(CO)NC(=O)CN1CCC(CNC(=O)c2cc(C(F)(F)F)cc(C(F)(F)F)c2)CC1` [Compound 430, N-((1-(2-(1-hydroxy-2-methyl-propan-2-ylamino)-2-oxoethyl)piperidin-4-yl)methyl)-3,5-bis(trifluoromethyl)benzamide]: the IC50 is under 300 nM.

With `CC(C)(C)OC(=O)NC(CN1CCC(CC(=O)NCCc2c[nH]c3ccccc23)CC1)C(C)(C)C` (centres unmarked) [Compound 197, tert-butyl 1-(4-(2-(2-(1H-indol-3-yl)ethylamino)-2-oxoethyl)piperidin-1-yl)-3,3-dimethylbutan-2-ylcarbamate], the IC50 is over 10000 nM.

With `COc1ccc(C(=O)NCC2CCN(CCNS(=O)(=O)C(F)(F)F)CC2)cc1OC` [Compound 332, 3,4-dimethoxy-N-((1-(2-(trifluoromethylsulfonamido)ethyl)piperidin-4-yl)methyl)benzamide], the IC50 was over 10000 nM. On to `COC(=O)NC(CN1CCC(CC(=O)NCc2cc(Cl)cc(Cl)c2)CC1)C(C)(C)C` (centres unmarked) [Compound 223, methyl 1-(4-(2-(3,5-dichlorobenzyl-amino)-2-oxoethyl)piperidin-1-yl)-3,3-dimethylbutan-2-ylcarbamate], for which the IC50 was determined as 8150 nM.

A further assay has as its target T2, human α1H T-type channels (Homo sapiens, UniProt O95180).
T2 construct: expressed in transfected cells; host or cells: HEK 293
In words: T-type calcium channel block, whole cell patch clamp in HEK cells (α1H). Particulars: HEK cells, patch clamp, mainly non-inactivated protocol; values above 10 μM shown as 10 μM; read-out: T-type Calcium Channel Block α1H IC50. Format: cell-based. The protocol: as §1, §2, §3, §4
Take `O=C(NCC1CCN(C2CN(C(=O)c3cccc(Cl)c3)C2)CC1)c1cc(F)cc(Cl)c1` [Compound 606, 3-chloro-N-((1-(1-(3-chlorobenzoyl)azetidin-3-yl)piperidin-4-yl)methyl)-5-fluorobenzamide]: the IC50 was 3300 nM. `C[C@H]1CC[C@H](C(=O)NCCN2CCC(CNC(=O)c3cc(C(F)(F)F)cc(C(F)(F)F)c3)CC2)CC1` [Compound 64, N-((1-(2-((1r,4r)-4-methylcyclohexanecarboxamido)ethyl)piperidin-4-yl)methyl)-3,5-bis(trifluoromethyl)benzamide]: the IC50 stood at 200 nM. Still for that read-out and setting: the same measure for `CCS(=O)(=O)NC(C)(C)CN1CCC(CNC(=O)c2cc(F)cc(C(F)(F)F)c2)CC1` [Compound 7, N-((1-(2-(ethylsulfonamido)-2-methylpropyl)piperidin-4-yl)methyl)-3-fluoro-5-(trifluoromethyl)benzamide]: 4330 nM. For the compound `O=C(NCC1CCN(CC(=O)N2CCC(C(F)(F)F)CC2)CC1)c1cc(C(F)(F)F)cc(C(F)(F)F)c1` [Compound 108, N-((1-(2-oxo-2-(4-(trifluoromethyl)piperidin-1-yl)ethyl)piperidin-4-yl)methyl)-3,5-bis(trifluoromethyl) benzamide], the IC50 came out at 250 nM. As for `CC1(C(=O)N2CC(N3CCC(CNC(=O)c4cc(F)cc(Cl)c4)CC3)C2)CC1` [Compound 608, 3-chloro-5-fluoro-N-((1-(1-(1-methylcyclopropanecarbonyl)azetidin-3-yl)piperidin-4-yl)methyl)benzamide], the IC50 is over 10000 nM. Same read-out and setting: for `O=C(NCC1CCN(C(=O)CN2CC[C@@H](O)C2)CC1)c1cc(C(F)(F)F)cc(C(F)(F)F)c1` [Compound 263, (R)-N-((1-(2-(3-hydroxypyrrolidin-1-yl)acetyl)piperidin-4-yl)methyl)-3,5-bis(trifluoromethyl)benzamide] the value was over 10000 nM; for `O=C(NCC1CCN(C2CN(C(=O)c3cc(F)cc(Cl)c3)C2)CC1)c1cc(F)cc(Cl)c1` [Compound 605, 3-chloro-N-((1-(1-(3-chloro-5-fluorobenzoyl)azetidin-3-yl)piperidin-4-yl)methyl)-5-fluorobenzamide], 3580 nM. As for `COc1cc(Cl)cc(C(=O)NCC2CCN(CC(=O)N(C)C(C)(C)C)CC2)c1` [Compound 596, N-((1-(2-(tert-butyl(methyl)amino)-2-oxoethyl)piperidin-4-yl)methyl)-3-chloro-5-methoxy-benzamide], the IC50 was found to be 160 nM. Take `CC1CCCCC1NC(=O)CN1CCC(CNC(=O)c2cc(C(F)(F)F)cc(C(F)(F)F)c2)CC1` (centres unmarked) [Compound 93]: the IC50 was determined as 90 nM. For the compound `CC(C)(C)C(=O)N1CC(N2CCC(CNC(=O)c3cc(F)cc(Cl)c3)CC2)C1` [Compound 607, 3-chloro-5-fluoro-N-((1-(1-pivaloyl-azetidin-3-yl)piperidin-4-yl)methyl) benzamide], the IC50 was determined as 3170 nM.

Consider `O=C(NCC1CCN(CCN2CCCC2=O)CC1)c1cc(F)cc(C(F)(F)F)c1` [Compound 487, 3-fluoro-N-((1-(2-(2-oxopyrrolidin-1-yl)ethyl)piperidin-4-yl)methyl)-5-(trifluoromethyl)benzamide], for which the IC50 is over 10000 nM.

In the case of `CC(C)(C)OC(=O)N1CCC(O)(CN2CCC(CNC(=O)c3cc(F)cc(Cl)c3)CC2)CC1` [Compound 598, tert-butyl 4-((4-((3-chloro-5-fluorobenzamido)methyl)piperidin-1-yl)methyl)-4-hydroxypiperidine-1-carboxylate], the IC50 was determined as 1650 nM. On to `CCC1CCCN1C(=O)CN1CCC(CNC(=O)c2cc(C(F)(F)F)cc(C(F)(F)F)c2)CC1` (centres unmarked) [Compound 105, N-((1-(2-(2-ethylpyrrolidin-1-yl)-2-oxoethyl)piperidin-4-yl)methyl)-3,5-bis(trifluoromethyl)benzamide], for which the IC50 came to 280 nM. Take `CN1CCC(C(=O)NCCN2CCC(CNC(=O)c3cc(C(F)(F)F)cc(C(F)(F)F)c3)CC2)CC1` [Compound 61, N-(2-(4-((3,5-bis(trifluoromethyl)benzamido)methyl)piperidin-1-yl)ethyl)-1-methylpiperidin-4-carboxamide]: the IC50 was over 10000 nM.
